Like-named read-outs stand apart in the source and are kept apart here.
Legend:
AChE = target: T1, AChE (Rattus norvegicus, UniProt P37136); assay: biochemical; settings: for inhibition at 1 µM: tested at 1 μM, rat hippocampal homogenate, read-out: AChE Inhibition (%) ± SEM
T1 sequence (P37136 32-614): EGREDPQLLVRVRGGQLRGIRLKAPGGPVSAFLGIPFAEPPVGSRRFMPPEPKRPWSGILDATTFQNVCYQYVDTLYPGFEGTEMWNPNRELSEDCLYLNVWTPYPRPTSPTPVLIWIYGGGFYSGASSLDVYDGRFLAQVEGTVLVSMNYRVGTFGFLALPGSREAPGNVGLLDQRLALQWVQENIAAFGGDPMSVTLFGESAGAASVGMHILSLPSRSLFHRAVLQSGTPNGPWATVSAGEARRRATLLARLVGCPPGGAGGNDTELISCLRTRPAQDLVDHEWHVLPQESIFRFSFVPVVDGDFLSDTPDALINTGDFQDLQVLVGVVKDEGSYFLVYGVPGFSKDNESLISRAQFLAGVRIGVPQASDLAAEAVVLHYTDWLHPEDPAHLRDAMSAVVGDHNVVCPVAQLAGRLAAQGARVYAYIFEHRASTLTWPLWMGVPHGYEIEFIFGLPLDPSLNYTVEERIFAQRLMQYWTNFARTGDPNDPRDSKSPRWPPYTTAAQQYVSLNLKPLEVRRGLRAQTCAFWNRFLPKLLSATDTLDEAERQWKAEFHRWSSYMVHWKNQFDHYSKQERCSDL
Procedure: Male Wistar rats weighing 230–250 g were used. AChE activity was assessed using a colorimetric reported method with minor modifications. Hippocampal tissue was homogenized in 39 volumes of 75 mM sodium phosphate buffer (pH 7.4). A mixture of 2 mL containing the compounds assessed, acetylthiocholine iodide, and 50 μL tissue homogenate was incubated for 8 min. […] The extent of color production was measured spectrophometrically at 420 nm using Ultospec 3000 (Pharmacia Biotech, Piscataway, NJ, USA). All samples were assayed in triplicate. Results were expressed as percentages of control values.
Different concentrations of the compounds were tested for their ability to inhibit AChE activity.

[1] = for Pe: pig, PAMPA
in vitro = settings: PAMPA
[2] = test system: K+-evoked [3H]ACh efflux in rat hippocampal slices; assay: In vitro ACh release, K+-evoked [3H]ACh efflux; assay type: cell-based
Procedure: Male Wistar rats weighing 230–250 g were used. K^+-evoked [^3H]ACh efflux was measured as previously described [39]. Briefly, the hippocampus was removed and dissected, cut sagittally into 500 µm slices using a McIlwain tissue chopper (The Mickle Laboratory Engineering Co. Ltd., Dorking, UK). […] Fractions were collected at 3-min intervals for a total of 60 min. At 12 min (S1) and 45 min (S2) after equilibration, the slices were depolarized by changing the superfusion fluid during 6 min to a solution containing 20 mM KCl. Drugs were added 15 min before S2. Tritium content was assayed by liquid scintillation spectroscopy. S1 and S2 were calculated as K+-stimulated tritium increases over basal efflux. Results were expressed as the S2/S1 ratio.

Row | SMILES | inhibition at 1 µM (AChE) [%] | PAMPA-BBB Classification [1] | Pe [1] | Papp (in vitro) [×10⁻⁶ cm/s] | Pe ([1]; 20 h, 500 µg/mL) | AChE activity inhibition (in words) (AChE; 0.01–10 µM, in vitro) | IC50 (AChE; estimated from non-linear fitted dose-response curves, 0.01–10 µM) [µM] | K+-evoked [3H]ACh efflux [2] | Papp at 20 h, 500 µg/mL (in vitro) [×10⁻⁶ cm/s]
1 | NS(=O)(=O)c1ccc(OCCCN2CCOCC2)cc1 [Compound 3] | < 5 | – | – | – | – | – | – | – | –
2 | O=C(Nc1cccc2ccccc12)NS(=O)(=O)c1ccc(OCCCN2CCCC2)cc1 [Compound 5] | 25.2 ± 7.7 | – | – | – | – | – | – | – | –
3 | CN(C)c1ccc(NC(=O)NS(=O)(=O)c2ccc(OCCCN3CCCC3)cc2)cc1 [Compound 6] | 29.9 ± 3.63 | CNS − (key: CNS +/−: BBB permeation uncertain: Pe (10^−6 cm/s) from 4.0 to 2.0; CNS −: low BBB permeation predicted: Pe (10^−6 cm/s < 2.0) | 0.32 | 0.32 ± 0.01 | – | – | – | – | –
4 | O=C(NC(c1ccccc1)c1ccccc1)NS(=O)(=O)c1ccc(OCCCN2CCCC2)cc1 [Compound 7] | > 37 | CNS − (key: CNS +/−: BBB permeation uncertain: Pe (10^−6 cm/s) from 4.0 to 2.0; CNS −: low BBB permeation predicted: Pe (10^−6 cm/s < 2.0) | – | – | 0.47 | significantly inhibit AChE activity in a concentration-dependent manner | > 10 | able to increase ACh release in vitro | 0.47 ± 0.06

From article PMC10815131, “Novel Pitolisant-Derived Sulfonyl Compounds for Alzheimer Disease” (International Journal of Molecular Sciences, 2024)
